The source of these data is US20230416329A1, “A PEPTIDE WITH DISULFIDE BONDS AND INHIBITORY ACTIVITY AGAINST SERINE PROTEASES, DERIVED HYBRID PEPTIDES THEREOF, AND USES THEREOF” (INSTITUTE OF MATERIA MEDICA , CHINESE ACADEMY OF MEDICAL …, priority 2020, published 2023).

Data set [1] in a line: Stability of GLP-1 and its analogues in human serum. As to conditions: 25% (v/v) human serum; for Remaining peak area (%)/human serum: 0.0 h, peptide 0.03 mM, 37° C.; for remaining at 0.5 h, 0.03 mM / remaining at 2 h, 0.03 mM / remaining at 4 h, 0.03 mM / remaining at 8 h, 0.03 mM / remaining at 12 h, 0.03 mM: human, pH 7.
The target of data set [2] is DPP-IV (Homo sapiens, UniProt P27487). As to the kind of experiment: Tolerance of GLP-1 and its analogues to DPP-IV (RP-HPLC remaining peak area). Format: in vitro ADME. The following applies: peptide 25 μM, DPP-IV 0.5 ng/μL, 37° C.; for Remaining peak area (%)/DPP-IV: 0.0 h; for remaining at 0.5 h, 25 μM / remaining at 2 h, 25 μM / remaining at 4 h, 25 μM / remaining at 8 h, 25 μM / remaining at 12 h, 25 μM: isolated DPP-IV enzyme in buffer, pH 8. The procedure:
(§1) Mix by centrifugation at 8000 rpm for 30 seconds.
(2) Arrange a certain volume of 0.005 μg/μL DPP-IV solution in another sterile EP.

Data set [3] concerns the target elastase (Sus scrofa, UniProt P00772). As to the kind of experiment: in vitro. As to conditions: isolated enzyme elastase; for Remaining peak area (%)/elastase: 1 h, 60 μM, pH 8; for remaining at 0.025 h, 60 μM / remaining at 0.05 h, 60 μM / remaining at 0.075 h, 60 μM / remaining at 0.1 h, 60 μM / remaining at 0.15 h, 60 μM / remaining at 0.25 h, 60 μM / remaining at 0.5 h, 60 μM / remaining at 1 h, 60 μM: pH 8, Remaining peak area (%)/elastase. As for the experimental part: FIG. 19. […] At different time point, 25 μL aliquots was taken out, and 10% (v/v) TFA was added to terminate the reaction.
as §1
Arrange a certain volume of 0.5 μg/μL elastase solution in another sterile EP. Incubate the EP tubes containing peptides and enzymes at 37° C. for 5 min, and then add 4.5 μL of elastase solution to each EP tube containing peptides and mix well. Start timing and remove 25 μL of reaction solution at 1.5, 3.0, 4.5, 6.0, 9.0, 15.0, 30.0, and 60.0 min later, respectively. Add 3.75 μL of 10% TFA to terminate the reaction and mix well by centrifugation at 8000 rpm for 30 seconds.
Referring to the experimental method in Example 5, in vitro stability of salmon Calcitonin analogs with oral administration activity to the enzymatic hydrolysis by trypsin, chymotrypsin and elastase were performed.
Referring to the experimental method in Example 5, in vitro stability of IL-17A inhibitory peptides towards the enzymatic hydrolysis by trypsin, chymotrypsin and elastase were performed.

elastase, sequence (P00772 27-266): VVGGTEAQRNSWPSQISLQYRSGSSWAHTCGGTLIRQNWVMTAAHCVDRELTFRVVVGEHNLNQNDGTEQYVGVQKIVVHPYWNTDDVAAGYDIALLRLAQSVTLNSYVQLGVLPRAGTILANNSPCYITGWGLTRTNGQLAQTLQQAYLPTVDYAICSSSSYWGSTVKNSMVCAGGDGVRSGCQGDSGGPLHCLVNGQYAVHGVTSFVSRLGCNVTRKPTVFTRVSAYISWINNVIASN
DPP-IV, sequence (P27487 whole entry, species assumed): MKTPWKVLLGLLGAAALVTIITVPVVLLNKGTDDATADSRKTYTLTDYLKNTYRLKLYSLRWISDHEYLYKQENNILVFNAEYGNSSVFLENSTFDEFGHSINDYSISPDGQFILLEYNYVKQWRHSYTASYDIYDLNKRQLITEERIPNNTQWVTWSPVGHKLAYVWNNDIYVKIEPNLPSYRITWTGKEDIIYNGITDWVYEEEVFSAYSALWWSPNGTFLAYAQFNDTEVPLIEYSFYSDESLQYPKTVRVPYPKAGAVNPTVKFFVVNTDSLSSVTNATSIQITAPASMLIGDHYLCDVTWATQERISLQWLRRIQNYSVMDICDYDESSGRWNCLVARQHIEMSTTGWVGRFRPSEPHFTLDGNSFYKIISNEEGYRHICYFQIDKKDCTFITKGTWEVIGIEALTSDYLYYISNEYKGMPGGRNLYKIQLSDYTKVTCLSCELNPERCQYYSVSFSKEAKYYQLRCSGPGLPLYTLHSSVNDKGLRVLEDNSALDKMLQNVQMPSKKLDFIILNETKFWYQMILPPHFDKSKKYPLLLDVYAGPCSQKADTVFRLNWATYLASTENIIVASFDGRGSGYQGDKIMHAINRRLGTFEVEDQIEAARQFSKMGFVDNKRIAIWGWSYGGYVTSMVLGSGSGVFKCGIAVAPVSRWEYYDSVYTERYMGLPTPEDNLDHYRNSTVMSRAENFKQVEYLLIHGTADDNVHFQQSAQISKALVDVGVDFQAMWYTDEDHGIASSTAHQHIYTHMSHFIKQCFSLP

In the case of `CC[C@H](C)[C@H](NC(=O)[C@H](Cc1ccccc1)NC(=O)[C@H](CCC(=O)O)NC(=O)[C@H](CCCCN)NC(=O)[C@H](C)NC(=O)[C@H](C)NC(=O)[C@H](CCC(N)=O)NC(=O)CNC(=O)[C@H](CCC(=O)O)NC(=O)[C@H](CC(C)C)NC(=O)[C@H](Cc1ccc(O)cc1)NC(=O)[C@H](CO)NC(=O)[C@H](CO)NC(=O)[C@@H](NC(=O)[C@H](CC(=O)O)NC(=O)[C@H](CO)NC(=O)[C@@H](NC(=O)[C@H](Cc1ccccc1)NC(=O)[C@@H](NC(=O)CNC(=O)[C@H](CCC(=O)O)NC(=O)[C@H](C)NC(=O)[C@H](Cc1c[nH]cn1)NC(=O)CNC(=O)CNC(=O)[C@@H](NC(=O)[C@@H]1CCCN1C(=O)[C@@H](NC(=O)CNC(=O)CNC(=O)[C@H](Cc1ccc(O)cc1)NC(=O)[C@@H]1CSSC[C@H](NC(=O)[C@@H](N)CC(C)C)C(=O)N[C@@H]([C@@H](C)O)C(=O)N[C@@H](C)C(=O)N[C@@H](CO)C(=O)N[C@@H]([C@@H](C)CC)C(=O)N2CCC[C@H]2C(=O)N2CCC[C@H]2C(=O)N[C@@H](CCC(N)=O)C(=O)N1)[C@@H](C)CC)[C@@H](C)CC)[C@@H](C)O)[C@@H](C)O)C(C)C)C(=O)N[C@@H](C)C(=O)N[C@@H](Cc1c[nH]c2ccccc12)C(=O)N[C@@H](CC(C)C)C(=O)N[C@H](C(=O)N[C@@H](CCCCN)C(=O)NCC(=O)N[C@@H](CCCNC(=N)N)C(=O)NCC(=O)NCC(=O)N[C@@H](CCCCN)C(=O)O)C(C)C` [EC1-D-GLP-1], in data set [1], the “Remaining peak area (%)/human serum” value was 100.0 ± 0.0%; the amount remaining at 0.5 h, 0.03 mM amounted to 72.8 ± 0.8%; the share remaining at 2 h, 0.03 mM amounted to 40.8 ± 4.3%; the fraction remaining at 4 h, 0.03 mM was found to be 23.4 ± 1.9%. Moreover, in data set [1], the share remaining at 8 h, 0.03 mM stood at 11.7 ± 2% and the share remaining at 12 h, 0.03 mM was determined as 3.4 ± 0.4%. Also, in data set [2], the “Remaining peak area (%)/DPP-IV” value amounted to 100.0 ± 0.0%; the fraction remaining at 0.5 h, 25 μM was 101 ± 1.7%; the amount remaining at 2 h, 25 μM came to 99.6 ± 0.6%; the share remaining at 4 h, 25 μM was 104.5 ± 0.3%. For the same compound, in data set [2], the share remaining at 8 h, 25 μM was 97.4 ± 4.2% and the share remaining at 12 h, 25 μM stood at 93.6 ± 4.9%. Moreover, in data set [3], the “Remaining peak area (%)/elastase” value is reported as 24.2 ± 0.6%; the fraction remaining at 0.025 h, 60 μM was 86 ± 5.4%; the amount remaining at 0.05 h, 60 μM is 81.9 ± 3.9%; the share remaining at 0.075 h, 60 μM turned out to be 80.3 ± 2%. Also, in data set [3], the share remaining at 0.1 h, 60 μM worked out at 80.1 ± 3.4%; the amount remaining at 0.15 h, 60 μM is 76.2 ± 1.6%; the share remaining at 0.25 h, 60 μM came to 70.4 ± 4.5%; the fraction remaining at 0.5 h, 60 μM is 40.9 ± 1.1%. Further, the amount remaining at 1 h, 60 μM in data set [3] is approximately 20%.
As to `CC[C@H](C)[C@H](NC(=O)[C@H](Cc1ccccc1)NC(=O)[C@H](CCC(=O)O)NC(=O)[C@H](CCCCN)NC(=O)[C@H](C)NC(=O)[C@H](C)NC(=O)[C@H](CCC(N)=O)NC(=O)CNC(=O)[C@H](CCC(=O)O)NC(=O)[C@H](CC(C)C)NC(=O)[C@H](Cc1ccc(O)cc1)NC(=O)[C@H](CO)NC(=O)[C@H](CO)NC(=O)[C@@H](NC(=O)[C@H](CC(=O)O)NC(=O)[C@H](CO)NC(=O)[C@@H](NC(=O)[C@H](Cc1ccccc1)NC(=O)[C@@H](NC(=O)CNC(=O)[C@H](CCC(=O)O)NC(=O)[C@H](C)NC(=O)[C@H](Cc1c[nH]cn1)NC(=O)CNC(=O)CNC(=O)[C@@H](NC(=O)[C@@H]1CCCN1C(=O)[C@@H](NC(=O)CN)[C@@H](C)CC)[C@@H](C)CC)[C@@H](C)O)[C@@H](C)O)C(C)C)C(=O)N[C@@H](C)C(=O)N[C@@H](Cc1c[nH]c2ccccc12)C(=O)N[C@@H](CC(C)C)C(=O)N[C@H](C(=O)N[C@@H](CCCCN)C(=O)NCC(=O)N[C@@H](CCCNC(=N)N)C(=O)NCC(=O)NCC(=O)N[C@@H](CCCCN)C(=O)NCC(=O)N[C@@H](CC(C)C)C(=O)N[C@H]1CSSC[C@@H](C(=O)N[C@@H](Cc2ccc(O)cc2)C(=O)O)NC(=O)[C@H](CCC(N)=O)NC(=O)[C@@H]2CCCN2C(=O)[C@@H]2CCCN2C(=O)[C@H]([C@@H](C)CC)NC(=O)[C@H](CO)NC(=O)[C@H](C)NC(=O)[C@H]([C@@H](C)O)NC1=O)C(C)C` [D-GLP-1-EC1], in data set [1], the “Remaining peak area (%)/human serum” value is reported as 100.0 ± 0.0%; the “serum stability (in words)” value is reported as “more stable in serum”; the fraction remaining at 0.5 h, 0.03 mM was determined as 73.7 ± 3.7%; the share remaining at 2 h, 0.03 mM turned out to be 63.5 ± 4.8%. Moreover, in data set [1], the share remaining at 4 h, 0.03 mM is 46.6 ± 6.4%; the share remaining at 8 h, 0.03 mM is 42.4 ± 3.5%; the amount remaining at 12 h, 0.03 mM turned out to be 27.4 ± 0.3%. In data set [2], the “Remaining peak area (%)/DPP-IV” value amounted to 100.0 ± 0.0%; the fraction remaining at 0.5 h, 25 μM worked out at 82.5 ± 0.6%; the amount remaining at 2 h, 25 μM was determined as 81.2 ± 3.9%; the amount remaining at 4 h, 25 μM came out at 84 ± 2.2%. Besides, in data set [2], the fraction remaining at 8 h, 25 μM came to 82.5 ± 1.6% and the share remaining at 12 h, 25 μM worked out at 83.5 ± 0.5%. In data set [3], the amount remaining at 0.025 h, 60 μM turned out to be 73.1 ± 5%; the fraction remaining at 0.05 h, 60 μM was found to be 73.8 ± 2.8%; the share remaining at 0.075 h, 60 μM was 70.4 ± 2%; the amount remaining at 0.1 h, 60 μM was determined as 68.6 ± 2.4%. Also, in data set [3], the amount remaining at 0.15 h, 60 μM turned out to be 66.9 ± 3.9%; the amount remaining at 0.25 h, 60 μM worked out at 62.1 ± 4.3%; the fraction remaining at 0.5 h, 60 μM amounted to 58.4 ± 4.6%; the share remaining at 1 h, 60 μM was determined as 44.5 ± 0.9%.
As for `CC[C@H](C)[C@H](NC(=O)[C@H](Cc1ccccc1)NC(=O)[C@H](CCC(=O)O)NC(=O)[C@H](CCCCN)NC(=O)[C@H](C)NC(=O)[C@H](C)NC(=O)[C@H](CCC(N)=O)NC(=O)CNC(=O)[C@H](CCC(=O)O)NC(=O)[C@H](CC(C)C)NC(=O)[C@H](Cc1ccc(O)cc1)NC(=O)[C@H](CO)NC(=O)[C@H](CO)NC(=O)[C@@H](NC(=O)[C@H](CC(=O)O)NC(=O)[C@H](CO)NC(=O)[C@@H](NC(=O)[C@H](Cc1ccccc1)NC(=O)[C@@H](NC(=O)CNC(=O)[C@H](CCC(=O)O)NC(=O)[C@H](C)NC(=O)[C@H](Cc1c[nH]cn1)NC(=O)CNC(=O)CNC(=O)[C@@H](NC(=O)[C@@H]1CCCN1C(=O)[C@@H](NC(=O)CN)[C@@H](C)CC)[C@@H](C)CC)[C@@H](C)O)[C@@H](C)O)C(C)C)C(=O)N[C@@H](C)C(=O)N[C@@H](Cc1c[nH]c2ccccc12)C(=O)N[C@@H](CC(C)C)C(=O)N[C@H](C(=O)N[C@@H](CCCCN)C(=O)NCC(=O)N[C@@H](CCCNC(=N)N)C(=O)NCC(=O)NCC(=O)N[C@@H](CCCCN)C(=O)NCC(=O)N[C@@H](CC(C)C)C(=O)N[C@H]1CSSC[C@@H](C(=O)N[C@@H](CCC(N)=O)C(=O)O)NC(=O)[C@H]([C@@H](C)CC)NC(=O)[C@@H]2CCCN2C(=O)[C@@H]2CCCN2C(=O)[C@H]([C@@H](C)CC)NC(=O)[C@H](CO)NC(=O)[C@H](C)NC(=O)[C@H]([C@@H](C)O)NC1=O)C(C)C` [D-GLP-1-EC12], in data set [1], the “Remaining peak area (%)/human serum” value was determined as 100.0 ± 0.0%; the “serum stability (in words)” value is on record as “more stable in serum”; the amount remaining at 0.5 h, 0.03 mM amounted to 86.9 ± 3.8%; the share remaining at 2 h, 0.03 mM came out at 79.9 ± 6.2%. Besides, in data set [1], the amount remaining at 4 h, 0.03 mM was determined as 73.9 ± 1.6%; the share remaining at 8 h, 0.03 mM stood at 72.9 ± 8.2%; the share remaining at 12 h, 0.03 mM is 53.5 ± 3.7%. In addition, in data set [2], the “Remaining peak area (%)/DPP-IV” value was determined as 100.0 ± 0.0%; the share remaining at 0.5 h, 25 μM amounted to 93.4 ± 0.8%; the share remaining at 2 h, 25 μM came out at 92.3 ± 3%; the fraction remaining at 4 h, 25 μM turned out to be 91.7 ± 0.6%. Also, in data set [2], the amount remaining at 8 h, 25 μM came to 93.3 ± 0.2% and the share remaining at 12 h, 25 μM is 95.1 ± 1.4%. In addition, in data set [3], the “Remaining peak area (%)/elastase” value is “about 45%”; the fraction remaining at 0.025 h, 60 μM was found to be 93.2 ± 2.4%; the fraction remaining at 0.05 h, 60 μM worked out at 88.9 ± 1.6%; the fraction remaining at 0.075 h, 60 μM turned out to be 83.3 ± 1%. In data set [3], the amount remaining at 0.1 h, 60 μM was determined as 82.7 ± 4.6%; the fraction remaining at 0.15 h, 60 μM was 79.8 ± 2.2%; the amount remaining at 0.25 h, 60 μM came out at 72.5 ± 1.6%; the share remaining at 0.5 h, 60 μM stood at 66.1 ± 2.1%. Besides, the share remaining at 1 h, 60 μM in data set [3] was found to be 49.5 ± 1.1%.
